These results are taken from patent US20240228572A1 (i2o Therapeutics, Inc., priority 2020, published 2024).

Data set [1] is described as follows: Stability in subcutaneous (SC) tissue homogenates, rat. The data set is classed as in vitro ADME. The conditions noted are these: subcutaneous (SC) tissue homogenate, pH 7.4, read-out: (H)SC tissue stability t½ (converted). Here is the method: (§1) In vitro incubations in subcutaneous (SC) tissue homogenates were used to characterize the ability of peptides to resist pre-systemic degradation by proteases and peptidases after SC administration. In vivo nonclinical studies have shown that peptidase activity in the SC space can limit the bioavailability of a peptide after SC administration. Peptides with high SC bioavailability are stable in this assay, while peptides with low SC bioavailability are unstable in this assay.
(§2) Human SC tissue was homogenized in cold 25 mM HEPES buffer (pH 7.4, 10-fold volume based on sample weight), and then filtered through a double layer of cheesecloth. The filtrates were aliquoted, flash frozen on a methanol/dry ice bath and stored at −80° C. The protein concentration of each pooled batch was determined using the BCA protein assay. Thawed stocks of human SC tissue homogenates were diluted to 1.0 mg protein/mL in 25 mM HEPES buffer (pH 7.4) and aliquoted into a 96-well plate. The diluted SC homogenates were pre-warmed for 10 minutes at 37° C. Reactions were initiated by the addition of test peptide (10 mcM final concentration) also dissolved in 25 mM HEPES buffer (pH 7.4). Reactions were maintained at 37° C. in a shaking water bath. […] Samples were analyzed by UPLC-MS/MS.

In data set [2] the target is T1, human GLP-1 receptor (GLP-1R) (Homo sapiens, UniProt P43220).
T1 construct: expressed in transfected cells
T1 sequence (P43220 24-463): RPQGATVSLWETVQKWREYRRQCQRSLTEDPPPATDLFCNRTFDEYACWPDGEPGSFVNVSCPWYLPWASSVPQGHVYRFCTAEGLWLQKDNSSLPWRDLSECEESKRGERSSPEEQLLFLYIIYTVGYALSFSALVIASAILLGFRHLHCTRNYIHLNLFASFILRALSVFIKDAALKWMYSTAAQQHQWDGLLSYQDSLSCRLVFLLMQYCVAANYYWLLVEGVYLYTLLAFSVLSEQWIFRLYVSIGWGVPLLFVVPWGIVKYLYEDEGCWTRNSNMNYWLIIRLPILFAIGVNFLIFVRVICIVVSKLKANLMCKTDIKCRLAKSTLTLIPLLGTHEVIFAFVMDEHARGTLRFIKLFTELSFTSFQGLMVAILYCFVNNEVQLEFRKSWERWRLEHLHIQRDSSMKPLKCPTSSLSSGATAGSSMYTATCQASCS
Description: cAMP accumulation assay, CHO-K1 cells stably expressing human GLP-1R. The data set is classed as cell-based. (In general: cAMP levels reflect the balance of adenylyl cyclase and phosphodiesterase activity.)

Data set [3] in a line: Stability in human subcutaneous (SC) tissue homogenates. The data set is classed as in vitro ADME. The conditions noted are these: subcutaneous (SC) tissue homogenate, 10 mcM peptide, 1.0 mg protein/mL, 37° C., pH 7.4, read-out: (H)SC tissue stability t½ (converted). As to the method: as §1, §2
Data set [4] can be described thus: Subcutaneous bolus injection pharmacokinetics / bioavailability in rats. The data set is classed as in vivo. The conditions noted are these: rat, plasma; SC bolus 0.11 mg/kg, male Sprague-Dawley rats. Here is the method: Peptides were dissolved in sterile saline and administered to non-fasted male Sprague-Dawley rats (n=3 per group) at a dose of 0.1 mg/kg via a single bolus injection into the subcutaneous space between the scapulae. Blood samples (approximately 250 μL) were collected for pharmacokinetic analysis via a jugular vein cannula at 0.083, 0.25, 0.5, 1, 2, 4, 8, 24, 48, 72, 96, and 120 hr post-dose into microtainer tubes containing K2EDTA as anticoagulant and 25 μL of a protease inhibitor cocktail. Plasma was prepared by centrifugation and stored at −80° C. until analysis.
A 70 μL aliquot of each plasma sample was placed into to a 96-well plate. To each well was added 210 μL of 0.1% TFA in 2:1 ethanol:acetonitrile containing an appropriate internal standard. Plates were vortex mixed for 10 min at 1300 rpm, and then centrifuged for 10 min at 500× g. Supernatants (210 μL) were placed into a clean 96-well plate and evaporated under a nitrogen stream at 45° C. Residues were reconstituted in 80 μL of 20% acetonitrile (aq) containing 0.1% formic acid.
All calibration standards were prepared in control rat plasma containing K2EDTA and protease inhibitor cocktail.
Samples and standards were analyzed by electrospray ionization (ESI) UPLC-MS/MS using a system consisting of a CTC HTS PAL auto-injector (Leap, Carrboro, NC), an Agilent Infinity 1290 system with column oven (Palo Alto, CA), a Valco switching valve (Houston, TX), and a Sciex TripleTOF® 5600 mass spectrometer (Framingham, MA). Samples were injected onto a 2.1×50 mm reverse phase C18 analytical column, typically a Waters CORTECS UPLC C18+, 1.6 μm (Waters Corporation, Milford, MA) or similar. […] Initial conditions consisted of 95% A and 5% B. The organic component was increased to 95% B over a period of 3-4 minutes, depending on the peptide. Typical flow rates were 550 μL/min. The column temperature was held constant at 45° C. Peptides were quantified by monitoring one or more product ions produced from a multiply charged parent ion.

Data set [5] in a line: Stability in subcutaneous (SC) tissue homogenates, monkey. The data set is classed as in vitro ADME. To be noted: subcutaneous (SC) tissue homogenate, pH 7.4, read-out: (H)SC tissue stability t½ (converted). Here is the method: as §1, §2

*1 amine or outer side, *2 acyl side, *3 side chain or, on linkers, in order; H or OH if unused. Where a SMILES comes first, the peptide text is derived from it. Side-chain parts run from the residue outwards. [ ]: non-standard residue; d: D form. The star is where a group is joined. C20 diacid = O=C(O)CCCCCCCCCCCCCCCCCCC(=O)*; γGlu = O=C(O)[C@H](CCC(=O)[*:2])N[*:1]; AEEA = NCCOCCOCC(=O)O; Aib = CC(C)(N)C(=O)O

The term EC50 denotes the concentration at which the effect is half-maximal. Broadly, the Cmax is the peak of the concentration-time curve. Broadly, the Tmax is the time at which the peak concentration occurs. Broadly, the bioavailability is dose-corrected exposure relative to a reference, in per cent.

`CC(C)C[C@H](NC(=O)[C@H](Cc1ccc(O)cc1)NC(=O)[C@H](CCCCN)NC(=O)[C@H](CO)NC(=O)[C@H](Cc1ccc(O)cc1)NC(=O)[C@H](CC(=O)O)NC(=O)[C@H](CO)NC(=O)[C@@H](NC(=O)[C@H](Cc1ccccc1)NC(=O)[C@@H](NC(=O)CNC(=O)[C@H](Cc1c[nH]cn1)NC(=O)[C@H](CO)NC(=O)[C@@H](N)Cc1ccc(O)cc1)[C@@H](C)O)[C@@H](C)O)C(=O)N[C@@H](CC(=O)O)C(=O)NC(C)(C)C(=O)N[C@@H](CCCCN)C(=O)N[C@@H](Cc1ccc(O)cc1)C(=O)N[C@@H](C)C(=O)N[C@@H](CCC(N)=O)C(=O)N[C@@H](CCCCNC(=O)CC[C@H](NC(=O)CC[C@H](NC(=O)COCCOCCNC(=O)CCCCCCCCCCCCCCCCCCC(=O)O)C(=O)O)C(=O)O)C(=O)N[C@@H](Cc1ccccc1)C(=O)N[C@H](C(=O)NC(C)(C)C(=O)N[C@@H](Cc1c[nH]c2ccccc12)C(=O)N[C@@H](CC(C)C)C(=O)N[C@@H](CCC(=O)O)C(=O)N[C@@H](CC(=O)O)C(=O)N[C@@H](CCC(=O)O)C(=O)N1CCC[C@H]1C(=O)N[C@@H](CO)C(=O)N[C@@H](CO)C(=O)NCC(=O)N[C@@H](C)C(=O)N1CCC[C@H]1C(=O)N1CCC[C@H]1C(=O)N1CCC[C@H]1C(=O)N[C@@H](CO)C(=O)O)C(C)C` [Compound A6] (H-YSHGTFTSDYSKYLD[Aib]KYAQK([γGlu-γGlu-AEEA-C20 diacid])FV[Aib]WLEDEPSSGAPPPS-OH; N-terminus assumed): in data set [1], the half-life at 10 mcM is 9 h. For the same compound, the EC50 in data set [2] is > 0.1 µM. Moreover, in data set [2] (human GLP-1 receptor, Table 11), the “Activity (as EC50 values) hGLP1R” value is reported as <7. Also, in data set [3], the half-life at 10 mcM is 10.6 h. In data set [4], the Cmax worked out at 462 ng/mL, the Tmax was 8 to 24 h, the bioavailability was determined as 94.9% and the half-life was 15.8 h. Also, the half-life at 10 mcM in data set [5] was 5 h.
